Reference: the supplement of paper PMC10307832

Columns and labels:
Test in all cases: relative viability (nuclei count vs DMSO), 5 days (fraction); higher = more cells survive
PAC-1 + Luminespib = compound: C=CCc1cccc(/C=N/NC(=O)CN2CCN(Cc3ccccc3)CC2)c1O [PAC-1] + CCNC(=O)c1noc(-c2cc(C(C)C)c(O)cc2O)c1-c1ccc(CN2CCOCC2)cc1 [Luminespib] (partner 0.01 µM)
Summary of the method: (§1)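 Medians of duplicate plates are given as relative viability. That measure is the nuclei count in treated wells divided by the count in vehicle wells. Counts were taken on 4× images of lung cancer cell lines in 1536-well plates, 5 days after pin-tool dosing the day after seeding with one drug alone or a fixed anchor-drug dose plus five library-drug doses (not always all listed) in √10 steps.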

Ibrutinib + Trametinib = compound: C=CC(=O)N1CCC[C@@H](n2nc(-c3ccc(Oc4ccccc4)cc3)c3c(N)ncnc32)C1 [Ibrutinib] + CC(=O)Nc1cccc(-n2c(=O)n(C3CC3)c(=O)c3c(Nc4ccc(I)cc4F)n(C)c(=O)c(C)c32)c1 [Trametinib] (partner 0.02 µM)
Summary of the method: as §1

PAC-1 + Bortezomib = compound: C=CCc1cccc(/C=N/NC(=O)CN2CCN(Cc3ccccc3)CC2)c1O [PAC-1] + CC(C)C[C@H](NC(=O)[C@H](Cc1ccccc1)NC(=O)c1cnccn1)B(O)O [Bortezomib] (partner 0.002 µM)
Summary of the method: as §1

BMX-IN-1 + Foretinib = compound: C=CC(=O)Nc1cc(-n2c(=O)ccc3cnc4ccc(-c5ccc(NS(C)(=O)=O)cc5)cc4c32)ccc1C [BMX-IN-1] + COc1cc2c(Oc3ccc(NC(=O)C4(C(=O)Nc5ccc(F)cc5)CC4)cc3F)ccnc2cc1OCCCN1CCOCC1 [Foretinib] (partner 0.25 µM)
Summary of the method: as §1

Cell Line | relative viability (PAC-1 + Luminespib; first compound 0.02 µM) | relative viability (PAC-1 + Luminespib; first compound 0.06325 µM) | relative viability (PAC-1 + Luminespib; first compound 0.2 µM) | relative viability (PAC-1 + Luminespib; first compound 2 µM) | relative viability (Ibrutinib + Trametinib; first compound 0.005 µM) | relative viability (Ibrutinib + Trametinib; first compound 0.01581 µM) | relative viability (Ibrutinib + Trametinib; first compound 0.05 µM) | relative viability (Ibrutinib + Trametinib; first compound 0.1581 µM) | relative viability (Ibrutinib + Trametinib; first compound 0.5 µM) | relative viability (PAC-1 + Bortezomib; first compound 0.02 µM) | relative viability (PAC-1 + Bortezomib; first compound 0.06325 µM) | relative viability (PAC-1 + Bortezomib; first compound 0.2 µM) | relative viability (PAC-1 + Bortezomib; first compound 2 µM) | relative viability (BMX-IN-1 + Foretinib; first compound 0.02 µM) | relative viability (BMX-IN-1 + Foretinib; first compound 0.2 µM) | relative viability (BMX-IN-1 + Foretinib; first compound 0.6325 µM) | relative viability (BMX-IN-1 + Foretinib; first compound 2 µM)
201T | 1.03 | 1.05 | 1.09 | 1.04 | 0.721 | 0.708 | 0.695 | 0.712 | 0.683 | 1.08 | 1.15 | 1.13 | 1.05 | 1.25 | 1.14 | 0.912 | 1.12
A549 | – | – | – | – | – | – | – | – | – | – | – | – | – | 1.14 | 0.971 | 1.2 | 0.982
A-427 | 1.13 | 0.769 | 0.988 | 0.951 | 0.654 | 0.777 | 0.782 | – | 0.694 | 1.05 | 1.01 | 0.963 | 0.958 | 1.1 | 1.24 | 1.02 | 0.97
ABC-1 | 0.526 | 0.803 | 0.682 | 0.519 | – | – | – | – | – | 0.336 | 0.371 | 0.258 | 0.319 | 1.21 | 0.999 | 1.19 | 0.955
BEN | 0.594 | 0.282 | 0.535 | 0.273 | 0.897 | – | 1.06 | 0.974 | 0.794 | 0.742 | 0.77 | 0.797 | 0.725 | 0.635 | 0.698 | 0.619 | 0.819
CAL-12T | 0.268 | 0.517 | 0.381 | 0.247 | 0.236 | 0.297 | 0.3 | 0.382 | 0.298 | 0.95 | 1.09 | 1.1 | 0.925 | 1.28 | 1.2 | 1.31 | 1.1
COR-L23 | 0.569 | 0.71 | 0.629 | 0.625 | 0.393 | 0.574 | 0.621 | 0.647 | 0.756 | 1.1 | 0.93 | 0.913 | 0.966 | 1.18 | 1.1 | 1.19 | 0.914
COR-L 105 | 0.769 | 0.788 | 0.627 | 0.725 | 0.381 | 0.384 | 0.407 | 0.419 | 0.339 | 0.71 | 0.695 | 0.757 | 0.792 | 1.12 | 1.2 | 1.37 | 1.17
Calu-6 | – | – | – | – | – | – | – | – | – | 1.07 | 1.09 | 1 | 1.1 | 0.918 | 1.07 | 0.908 | 0.776
ChaGo-K-1 | 0.645 | 0.737 | 0.645 | 0.715 | 0.907 | 0.879 | 0.922 | 0.857 | 0.854 | 0.941 | 1.1 | 1.16 | 0.88 | 1.09 | 0.938 | 0.821 | 0.915
EBC-1 | – | – | – | – | – | – | – | – | – | 0.513 | 0.544 | 0.633 | 0.53 | 0.0974 | 0.114 | 0.144 | 0.101
EKVX | 0.917 | 0.855 | 0.815 | 0.837 | 0.322 | 0.343 | 0.392 | – | 0.215 | 1.02 | 1.04 | 1.03 | 0.991 | 0.784 | 0.902 | 0.965 | 0.893
EMC-BAC-2 | 1.19 | 1.17 | 1.18 | 1.15 | 0.836 | 0.895 | – | – | 1.03 | 1.09 | 1.04 | 1.11 | 1.13 | 1.04 | 0.984 | 1.06 | 0.985
EPLC-272H | 0.296 | 0.262 | 0.202 | 0.277 | – | 0.293 | 0.311 | 0.277 | 0.243 | – | 0.895 | 1.02 | 1 | 0.851 | 0.759 | 0.622 | 0.592
H3255 | 0.905 | 0.852 | 0.672 | 0.804 | 0.461 | 0.531 | – | 0.624 | 0.378 | 0.876 | 0.778 | 0.861 | 0.729 | 0.859 | 0.989 | 0.925 | 0.99
HARA | 0.554 | 0.674 | 0.793 | 0.937 | 0.719 | 0.633 | 0.638 | 0.78 | 0.262 | 1.08 | 1.12 | 0.853 | 1.11 | 1.43 | 1.27 | 0.936 | 0.799
HCC-15 | 0.447 | 0.37 | 0.355 | 0.279 | 0.387 | 0.367 | 0.419 | 0.432 | 0.365 | 1.03 | 1.11 | 1.01 | 1.04 | 1.24 | 1.13 | 1.11 | 1.02
HCC-44 | 1.04 | 1.14 | 1.01 | 0.964 | 1.04 | 1.04 | 0.992 | 1.19 | 1.06 | 0.894 | 0.885 | 0.947 | 0.934 | – | – | – | –
HCC-78 | – | – | – | – | – | 0.569 | 0.622 | 0.698 | 0.706 | 0.387 | 0.496 | 0.434 | 0.483 | 0.626 | 0.544 | 0.587 | 0.545
HCC-366 | – | – | – | – | 0.34 | 0.366 | 0.317 | 0.394 | 0.391 | 1.01 | 1.04 | 1.07 | 1.14 | 1.03 | 0.962 | 1.01 | 0.886
HCC-827 | 0.634 | 0.465 | 0.649 | 0.609 | 0.49 | 0.489 | 0.416 | 0.509 | 0.196 | 1.1 | 1.01 | 1.07 | 0.978 | 1.01 | 1.02 | 1.03 | 1.03
HOP-62 | 0.954 | 0.835 | 0.852 | 0.942 | 0.367 | 0.331 | 0.374 | 0.424 | 0.385 | 0.976 | 0.986 | 0.836 | 0.673 | 1.26 | 1.27 | 1.09 | 1.1
